Paper PMC12219075 (Scientific Reports, 2025)
pIC50: −log10 of the molar value.

What follows are compounds tested against Proto-oncogene tyrosine-protein kinase Src (SRC) (Homo sapiens, UniProt P12931) (assay: mobility shift kinase assay).
Assay type: biochemical

Proto-oncogene tyrosine-protein kinase Src (SRC), sequence (P12931 2-536): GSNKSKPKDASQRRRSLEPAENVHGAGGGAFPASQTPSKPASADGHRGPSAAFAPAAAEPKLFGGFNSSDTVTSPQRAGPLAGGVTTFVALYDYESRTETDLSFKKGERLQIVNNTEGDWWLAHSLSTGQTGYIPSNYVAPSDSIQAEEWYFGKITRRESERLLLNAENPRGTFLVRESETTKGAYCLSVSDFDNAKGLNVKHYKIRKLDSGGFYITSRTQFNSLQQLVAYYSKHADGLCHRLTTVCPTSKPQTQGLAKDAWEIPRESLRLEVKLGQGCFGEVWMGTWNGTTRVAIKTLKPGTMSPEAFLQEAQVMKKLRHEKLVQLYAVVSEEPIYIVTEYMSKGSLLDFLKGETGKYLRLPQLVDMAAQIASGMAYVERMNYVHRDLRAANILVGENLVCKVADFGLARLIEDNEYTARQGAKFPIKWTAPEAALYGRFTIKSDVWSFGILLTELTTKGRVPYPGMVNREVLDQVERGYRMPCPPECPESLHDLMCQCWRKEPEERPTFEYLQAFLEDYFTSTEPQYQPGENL

Row | pIC50 | Compound
1 | 4.65 | C[C@@H]1CC[C@]2(C(=O)O)CC[C@]3(C)C(=CC[C@@H]4[C@@]5(C)C[C@@H](O)[C@@H](O)C(C)(C)[C@@H]5CC[C@]43C)[C@@H]2[C@]1(C)O [compound 99, 2α,3α,19α-trihydroxyurs-12-en-28-oic acid]
2 | 4.57 | CC1(C)CC[C@]2(C(=O)O)CC[C@]3(C)C(=CC[C@@H]4[C@@]5(C)C[C@@H](O)[C@H](O)C(C)(C)[C@@H]5CC[C@]43C)[C@@H]2C1 [compound 102, crataegolic acid]
3 | 4.52 | CC1(C)CC[C@]2(C(=O)O)CC[C@]3(C)C(=CC[C@@H]4[C@@]5(C)CC[C@H](O)C(C)(C)[C@@H]5CC[C@]43C)[C@@H]2C1 [compound 116, oleanolic acid]
